Literature values in patent US9161929B2, “Solvent cast film sustained release latanoprost implant” (ALLERGAN, INC., priority 2011, dated 2015).

solubility in acetone, ethanol, ethyl acetate, isopropanol, methanol and octanol: freely soluble
Structure (SMILES): CC(C)OC(=O)CCC/C=C\C[C@@H]1[C@@H](CC[C@@H](O)CCc2ccccc2)[C@H](O)C[C@@H]1O [Latanoprost]
